Laboratory results taken from patent EP0551200A1, “Protein phosphatase inhibitors for use in therapy” (priority 1992, dated 1993).

What was measured:
[1] = test system: Egr-1 mRNA; assay: Northern blot analysis of Egr-1 mRNA induction in quiescent primary human fibroblasts; assay type: cell-based
Experimental: Quiescent human fibroblasts were incubated with TNF (500 units/ml) (a) or OA (500 nM) (b) for 0, 30, 60 min after which total cellular RNA was extracted. Blots of RNA from these cells were hybridized to radiolabeled (10⁶ cpm/ml) Egr-1 cDNA probe. c, the blot in b was stripped and reprobed with c-jun cDNA. Note: Egr-1 mRNA probe was not completely stripped from the blot. The autoradiograph of the blot is presented. d, regularly maintained cells were incubated wither with no additions (control, 0 time) or with OA for 1, 3, 5, 7 h and Northern analysis was carried out with an IL-6 cDNA probe (ATCC, Rockville, MD, US).
(§1) 10 µg of RNA was applied to each lane and subjected to Northern blot analysis using an Egr-1 specific cDNA probe [1.6 kb Bgl II fragment (Sukhatme et al, Cell 53, 37-48, 1988)]. The same blots were rehybridized with actin or GADPH cDNA for normalizing the amount of RNA loaded. The blots were dried and autoradiographed. • (A). Time course of okadaic acid-induced Egr-1 and c-jun messages in primary human fibroblasts. Quiescent human fibroblasts were induced with 1 µM of okadaic acid for the time periods indicated. […] Time course of okadaic acid-induced Egr-1 message in Balb/c 3T3 cells. Quiescent Balb/c 3T3 cells were induced with okadaic acid (0.5µM) for the times indicated. • (C). Concentration dependent induction of Egr-1 message by okadaic acid in Balb/c 3T3 cells. Quiescent Balb/c 3T3 cells were induced with the indicated concentrations of okadaic acid for 1 h. As controls, different concentrations of DMSO were included. These corresponded to the amounts present in 0.25 µM okadaic acid (0.025% dimethyl sulphoxide (DMSO)) 0.5 µM okadaic acid (0.05% DMSO) and 1 µM okadaic acid (0.1%). • (D). Concentration dependent and time course induction of Egr-1 message by calyculin A. Quiescent Balb/c 3T3 cells were induced with different concentrations of calyculin A for 1 h. Northern analysis of this dose-dependent induction by calyculin A is shown on the left panel of the figure. […] Northern analysis of this time course induction by calyculin A is shown in the right panel of the figure. The same blot was rehybridized with pCMV-fos (Curran et al, Oncogene 2, 79-84, 1987) and pCMV-jun (Rauscher et al, 1988) shown in the middle panel. The blot was dried and autoradiographed.
Cells were incubated with either 0.5 µM of okadaic acid or 10 µg/ml of cycloheximide as well as with 0.5 µM of okadaic acid and 10 µg/ml of cycloheximide for 1.5, 3 or 6 h. Cells were harvested, RNA isolated and subjected to Northern blot analysis. The blot was probed with Egr-1 or actin cDNA.
Quiescent primary human fibroblasts were incubated with okadaic acid (OA) or TPA for 1 or 3 h. The concentrations of OA and TPA were 0.5 µM and 120 ng/ml, respectively. The concentration of 1-(5-isoquinolinylsulfonyl)-2-methylpiperazine dihydrochloride (H7) and N-(2-guanidinoethyl)-5-isoquinolinesulphonamide dihydrochloride (HA1004) used was 25 µM. The cells were pre-treated for 15 min with H7 or HA1004 before they were induced by OA or TPA for 1 or 3 h. Cells were harvested, RNA was isolated and subjected to Northern blot analysis. The blot was probed with Egr-1 or GADPH cDNA. • (B). As a positive control, primary human fibroblasts were treated with TPA (30 ng/ml) for 1 h (1st lane). The fibroblasts were also pre-treated with H7 (25 µM) or HA1004 (25 µM) for 15 min before treatment with TPA for 1 h (2nd and 3rd lanes respectively). […] The blot was probed with Egr-1 or actin cDNA. • (C). Quiescent Balb/c 3T3 cells were incubated with OA, TPA or dBt-cAMP for 1 h or pre-treated with H7 (25 µM) or HA1004 (25 µM) for 15 min and then incubated with each of the agonists for 1 h. Cells were harvested, RNA was isolated and subjected to Northern blot analysis. […]

[2] = test system: Egr-1 mRNA; assay: cells; assay type: cell-based, mouse
Experimental: as §1
Quiescent primary human fibroblasts were incubated with okadaic acid (OA) or TPA for 1 or 3 h. The concentrations of OA and TPA were 0.5 µM and 120 ng/ml, respectively. The concentration of 1-(5-isoquinolinylsulfonyl)-2-methylpiperazine dihydrochloride (H7) and N-(2-guanidinoethyl)-5-isoquinolinesulphonamide dihydrochloride (HA1004) used was 25 µM. The cells were pre-treated for 15 min with H7 or HA1004 before they were induced by OA or TPA for 1 or 3 h. Cells were harvested, RNA was isolated and subjected to Northern blot analysis. The blot was probed with Egr-1 or GADPH cDNA. • (B). As a positive control, primary human fibroblasts were treated with TPA (30 ng/ml) for 1 h (1st lane). The fibroblasts were also pre-treated with H7 (25 µM) or HA1004 (25 µM) for 15 min before treatment with TPA for 1 h (2nd and 3rd lanes respectively). […] The blot was probed with Egr-1 or actin cDNA. • (C). Quiescent Balb/c 3T3 cells were incubated with OA, TPA or dBt-cAMP for 1 h or pre-treated with H7 (25 µM) or HA1004 (25 µM) for 15 min and then incubated with each of the agonists for 1 h. Cells were harvested, RNA was isolated and subjected to Northern blot analysis. The concentration of each agonist used was as follows: lane a: 0.5 µM of OA, lane b: 100 ng/ml of TPA, lane c: 1 mM of dBt-cAMP, lane d: H7 plus OA (0.5 µM), lane e: H7 plus TPA (100 ng/ml), lane f: H7 plus dBt-cAMP (1 mM), lane g: HA1004 plus OA (0.5 µM), lane h: HA1004 plus TPA (100 ng.ml), lane i: HA1004 plus dBt-cAMP (1mM). The blot was probed with Egr-1 or GADPH cDNA.
Cell Cultures and Reagents. Human diploid foreskin fibroblasts were a gift from Dr J Vilcek (New York University, New York). The cells were grown in MEM supplemented with 10% fetal bovine serum (Hyclone, Logan, UT, US), Mouse Balb/c 3T3 cells were purchased from the American Type Culture Collection and grown in Dulbecco's MEM (DMEM) supplemented with 10% fetal bovine serum. Okadaic acid, calyculin A, H7, and HA1004 were purchased from Biomol Research Laboratories (Plymouth Meeting, PA, US). TPA, puromycin and dBt-cAMP were purchased from Sigma (St Louis, MO, US) 1 mM stock solutions of okadaic acid or calyculin A were solubilized in DMSO. [³²P]orthophosphate and other radioactive chemicals were purchased from Du Pont-New England Nuclear (Boston, MA). […]

## C=C1[C@@H](O)[C@@H]2O[C@]3(CC[C@H](/C=C/[C@@H](C)[C@@H]4CC(C)=C[C@@]5(O[C@H](C[C@@](C)(O)C(=O)O)CC[C@H]5O)O4)O3)CC[C@H]2O[C@@H]1[C@@H](O)C[C@H](C)[C@H]1O[C@@]2(CCCCO2)CC[C@H]1C [okadaic acid]
[1]; 1 µM
  time for which the Egr-1 mRNA level is maintained: up to 7 h
  time of maximal induction of Egr-1 mRNA: about 2 h
[1]; 1 µM, Example 2
  time to induction of Egr-1 mRNA: ≤ 1 h
[1]; Homo sapiens, Fibroblast, read-out: Egr-1 mRNA level over control
  fold induction at 1 µM: 30 to 40
[1]; OA 500 nM, Example 1
  time to induction of Egr-1: ≤ 30 min
[2]; 0.5 µM
  time for which the Egr-1 mRNA level is maintained: up to 7 h
  time of maximal induction of Egr-1 mRNA: about 2 h
  time to induction of Egr-1 mRNA: ≤ 1 h
[2]; 1 h, calyculin A compared with okadaic acid
  concentration inducing an equivalent fold increase in Egr-1 mRNA: 1000 nM
[2]; Mus musculus, BALB/c3T3, 0.5 µM, maintained level, read-out: Egr-1 mRNA level over control
  fold induction at 0.5 µM: 30 to 40
